From US4977152A, “Novel tricyclic derivatives which are agonists of cholinergic receptors, and drugs in which they are present” (Societe Anonyme: Sanofi, priority 1986, dated 1990) come the findings set out here.

The target of assay [1] is T1, M1 central muscarinic cholinergic receptors (Mus musculus, UniProt P12657).
T1 construct: The intrastriatal injection of PZ into mice induces rotational behavior; from tissue; host or cells: right striatum of living female mice (Swiss, CD 1)
T1 sequence (P12657 1-460): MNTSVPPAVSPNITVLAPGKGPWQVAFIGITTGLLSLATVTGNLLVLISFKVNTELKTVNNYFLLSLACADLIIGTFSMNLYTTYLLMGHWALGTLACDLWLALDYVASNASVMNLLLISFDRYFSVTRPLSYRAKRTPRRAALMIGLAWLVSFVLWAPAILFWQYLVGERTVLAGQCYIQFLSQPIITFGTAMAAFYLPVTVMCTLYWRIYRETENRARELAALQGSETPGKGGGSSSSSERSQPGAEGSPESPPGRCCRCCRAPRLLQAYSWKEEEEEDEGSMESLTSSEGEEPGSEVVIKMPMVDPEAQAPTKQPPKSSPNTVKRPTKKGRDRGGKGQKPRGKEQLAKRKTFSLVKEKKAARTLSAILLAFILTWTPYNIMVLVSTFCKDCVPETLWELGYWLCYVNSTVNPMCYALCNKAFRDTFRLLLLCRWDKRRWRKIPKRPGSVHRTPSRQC
Nature of the assay: Antagonism of rotational behavior induced by intrastriatal injection of pirenzepine in mice. Format: in vivo, mice (female, Swiss, CD 1). The following applies: ip, read-out: Pirenzepine antagonism ED50. The method, then:
Pirenzepine (PZ) is a specific antagonist of M1 central muscarinic cholinergic receptors. The intrastriatal injection of PZ into mice induces rotational behavior. The antagonism of this behavior by the products according to the invention was studied.
The products according to the invention are injected intraperitoneally (i.p.) after solubilization in distilled water or suspension in a 5% solution of gum arabic. The control animals receive an injection of the pure solvent under the same conditions.
The animals used are female mice (Swiss, CD 1, Charles River, France) with a body weight of between 25 and 30 grams.
Pirenzepine is dissolved in a phosphate buffer; the pH of the solution is 6.
The products to be studied or their solvents are injected intraperitoneally, in a volume of 0.4 ml per 20 g of body weight, 15 minutes before a direct injection of pirenzepine at a dose of […] into the right striatum of the mouse, according to the method described by p.
The number of contralateral rotations (rotations in the opposite direction to the side injected) was counted for three 2-minute periods after the injection of pirenzepine: minutes 2 to 4, 8 to 10 and 13 to 15. Each treatment includes 3 to 4 doses and 10 animals per dose. For each treatment, the total number of rotations and the percentage antagonism compared with the control group are calculated.

The target of assay [2] is T2, M1-type muscarinic cholinergic receptor (Rattus norvegicus, UniProt P08482).
T2 sequence (P08482 1-460): T1 sequence (P12657 1-460) with P309S
The assay can be described thus: Test for affinity for the M1-type muscarinic cholinergic receptor: displacement of [3H]pirenzepine on rat hippocampus homogenate. Format: binding. The following applies: for IC50: rat hippocampus homogenate, 1 nM [3H]PZ, 2 h at 4° C., pH 7.40; for r = (M2 /M1): ratio of IC50 M2 (3H-NMS, guinea-pig ileum) to IC50 M1 (3H-pirenzepine, rat hippocampus). The text has this: (§1) The M1 -type receptors are concentrated in certain areas of the brain, such as the hippocampus, the cerebral cortex and the striatum, and also in the sympathetic ganglia. These binding sites can be selectively labeled with [^3 H]pirenzepine ([^3 H]PZ). The M2 -type receptors predominate in the heart and ileum and can be labeled with [^3 H]N-methylscopolamine ([^3 H]NMS). To determine the selectivity of our molecules towards the M1 and M2 sites, we studied their interaction in vitro with [^3 H]PZ and [^3 H]NMS bound with a high affinity to membranes of rat hippocampus and membranes of smooth muscle of guinea-pig ileum, respectively.
The interaction of the molecules with M1 -type muscarinic receptors was studied by in vitro measurement, on a homogenate of rat hippocampus, of the displacement of tritiated pirenzepine ([^3 H]PZ) from its specific binding sites. Aliquots (10 μl) of a 5% (w/v) homogenate of rat hippocampus in an Na2 HPO4 buffer (50 mM, pH 7.40) are incubated for 2 h at 4° C. in the presence of [^3 H]pZ ([…]; final concentration: 1 nM) and increasing concentrations of products to be studied. The final volume is 2 ml. The reaction is stopped by centrifugation for 10 min at 50,000 × g. After decantation and washing of the residues, the bound radioactivity is counted by liquid scintillation. The non-specific binding is determined in the presence of 10 μmol/l of atropine sulfate. The 50% inhibitory concentration (IC50) is determined graphically (Ref.: Watson J. D., Roeskoe W. R. and Yamamura H.1., Life Sci., 31, 2019-2029, 1982).
(§2) Table 4 indicates the affinities of the products of the invention for M1 and M2 receptors. The results are expressed as 50% inhibitory concentrations (IC50), i.e. the concentration (in μM) which causes a 50% displacement placement of the tritiated ligand bound to the membrane receptors. The IC50 for displacement of ^3 H-pirenzepine represents the affinity for the M1 receptor; the IC50 for displacement of 3H-NMS represents the affinity for the M2 receptor.
On the technique in general: In a radioligand displacement assay an active substance lowers the binding of a labelled ligand.

Assay [3] has as its target T3, M2-type muscarinic cholinergic receptor (Cavia porcellus, UniProt H0VRN8).
T3 construct: on a homogenate of smooth muscle of guinea-pig ileum; from tissue; host or cells: guinea-pig ileum smooth muscle homogenate
T3 sequence (H0VRN8 1-466): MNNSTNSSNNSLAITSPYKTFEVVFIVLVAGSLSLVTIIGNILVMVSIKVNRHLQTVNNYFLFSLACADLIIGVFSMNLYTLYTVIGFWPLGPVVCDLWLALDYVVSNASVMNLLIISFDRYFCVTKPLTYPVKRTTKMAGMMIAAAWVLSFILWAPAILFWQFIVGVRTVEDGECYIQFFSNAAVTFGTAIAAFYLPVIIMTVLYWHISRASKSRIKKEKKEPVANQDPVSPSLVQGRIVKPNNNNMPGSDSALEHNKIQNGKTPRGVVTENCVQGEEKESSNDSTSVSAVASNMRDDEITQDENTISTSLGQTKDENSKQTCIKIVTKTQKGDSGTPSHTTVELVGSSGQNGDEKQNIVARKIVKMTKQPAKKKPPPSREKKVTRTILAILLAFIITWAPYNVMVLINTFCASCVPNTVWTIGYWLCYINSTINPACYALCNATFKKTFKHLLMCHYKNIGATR
The assay can be described thus: Test for affinity for the M2-type muscarinic cholinergic receptor: displacement of [3H]N-methylscopolamine on smooth muscle of guinea-pig ileum. The assay is classed as binding. As to conditions: guinea-pig ileum smooth muscle homogenate, 0.3 nM [3H]NMS, 20 min at 30° C., pH 7.5.
Description: as §1
The interaction with M2 -type muscarinic receptors was studied by in vitro measurement, on a homogenate of smooth muscle of guinea-pig ileum, of the displacement of tritiated N-methylscopolamine ([^3 H]NMS) from its specific binding sites. Aliquots (50 μl) of a 0.625% (w/v) homogenate of smooth muscle of guinea-pig ileum in MEPES buffer (20 mM) containing NaCl (100 mM) and MgCl2 (10 mM) (final pH: 7.5) are incubated for 20 min at 30° C. in the presence of [^3 H]NMS ([…]; final concentration: 0.3 nM) and increasing concentrations of products to be tested. The final volume is 1 ml. The reaction is stopped by centrifugation for 5 min at 15,000 × g. The non-specific binding is determined in the presence of 10 μmol/l of atropine sulfate (Ref.: Hammer R., Berrie C. P., Birdsall N. I. M., Burgen A. S. V. and Hulme E. C., Nature, 283, 90-92, 1980; Hulme E. C., Birdsall N.1.M., Burgen A. S. V. and Mettha P., Mol. pharmacol., 14, 737-750, 1978).
as §2

Setting [4] is: mice, i.p. 15 minutes before intrastriatal pirenzepine, 50% reduction in number of rotations.

Positions count from the first letter of the chain named. Structures can show the parent of a compound that is named as a salt. Where two headings read alike, the source gives them in different places.

By ED50 is commonly meant the dose that gives a 50% effect, or the effect in half of the subjects. In general, IC50 refers to the midpoint of a concentration-inhibition curve. A low value points to higher potency. Take `CN(C)CCOc1cc2c(nn1)-c1ccccc1CCC2.Cl` [SR 95822 A, 3-(2-Dimethylaminoethoxy)-6,7-dihydro-5H-benzocyclohepta[5,6-c]pyridazine hydrochloride]: the ED50 in assay [1] turned out to be 3 mg/kg. Further, in assay [2], the IC50 worked out at 1 µM and the “r = (M2 /M1)” value is given as 9.5. Also, in assay [3], the IC50 turned out to be 9.5 µM.

`Cc1cc2ccccc2c2nnc(NCCN3CCOCC3)cc12` [SR 96057 A, 5-3-(2-morpholinoethylamino)benzo[h]cinnoline dihydrochloride]: in assay [2], the IC50 was 3 µM and the “r = (M2 /M1)” value worked out at 14. In addition, in assay [3], the IC50 stood at 43 µM.

Consider `CN(C)CCNc1cc2c(nn1)-c1cc(Cl)c(Cl)cc1CCC2` [SR 44696 A], for which, in assay [2], the IC50 was determined as 0.7 µM and the “r = (M2 /M1)” value was 10. In assay [3], the IC50 was 6.5 µM.

In the case of `O=C1CN(CCNc2cc3c(nn2)-c2ccccc2CCC3)CCO1` [SR 95696 A, 3-Z-(2-Oxomorpholino)ethylamino]-6,7-dihydro-5H-benzocyclohepta[5,6-c]pyridazine hydrochloride], the ED50 in assay [1] (setting [4]) amounted to 3 mg/kg.

As to `c1ccc2c(c1)CCCc1cc(NCCCN3CCOCC3)nnc1-2` [SR 95817 A], the ED50 in assay [1] (setting [4]) stood at 2 mg/kg.

Consider `Cl.Cl.O=[N+]([O-])c1cccc2c1CCCc1cc(NCCN3CCOCC3)nnc1-2` [SR 96100 A, 3-(2-Morpholinoethylamino)-8-nitro-6,7-dihydro-5H-benzocyclohepta[5,6-c]pyridazine dihydrochloride], for which, in assay [2], the IC50 came out at 0.4 µM and the “r = (M2 /M1)” value was 110. For the same molecule, the IC50 in assay [3] turned out to be 44 µM.

As for `CCN(CC)CCNc1cc2c(nn1)-c1cc(Cl)c(Cl)cc1CCC2.Cl.Cl` [SR 44695 A, 9,10-Dichloro-3-(2-diethylaminoethylamino)-6,7-dihydro-5H-benzocyclohepta[5,6-c]pyridazine dihydrochloride], the IC50 in assay [2] amounted to 0.45 µM; in assay [3] it was 4.5 µM. For the same molecule, the “r = (M2 /M1)” value in assay [2] is on record as 10.

Turning to `Cl.Cl.Fc1ccc2c(c1)CCCc1cc(NCCN3CCOCC3)nnc1-2` [SR 96108 A, 9-Fluoro-3 (2-morpholinoethylamino)-6,7-dihydro-5H-benzocyclohepta[5,6-c]pyridazine dihydrochloride], in assay [2], the IC50 amounted to 1 µM and the “r = (M2 /M1)” value came out at 40. Also, the IC50 in assay [3] turned out to be 40 µM.

For the molecule `CCN(CC)CCNc1cc2c(nn1)-c1cc(N)ccc1CCC2` [SR 95776 A, 10-Amino-3-(Z-diethylaminoethylamino)-6,7-dihydro-5H-benzocyclohepta[5,6-c]pyridazine dihydrochloride], in assay [2], the IC50 turned out to be 0.2 µM and the “r = (M2 /M1)” value came to 10. The molecule also returned an IC50 in assay [3] of 2 µM.

With `CCCCN(CCCC)CCNc1cc2c(nn1)-c1cc(C)c(C)cc1CCC2` [SR 44706 A], the results for the IC50 in assay [2] and in assay [3] were 3.6 µM and 30 µM, respectively. In assay [2], the “r = (M2 /M1)” value is listed as 8.

As to `OCCNCCNc1cc2c(nn1)-c1ccccc1CCC2` [SR 95819 A, 3-[2-(2-hydroxyethylamino)ethylamino]-6,7-dihydro-5H-benzocyclohepta[5,6-c]pyridazine], the ED50 in assay [1] (setting [4]) was determined as 10 mg/kg.

Turning to `c1ccc2c(c1)CCCc1cc(NCCN3CCCCC3)nnc1-2` [SR 44694 A], the 50% inhibitory concentration (IC50) in assay [2] came out at 0.15 µM; in assay [3], 3.6 µM. The “r = (M2 /M1)” value in assay [2] came to 24.

Regarding `Clc1cc2c(cc1Cl)-c1nnc(NCCN3CCCCC3)cc1CCC2` [SR 44705 A], in assay [2], the IC50 came out at 0.18 µM and the “r = (M2 /M1)” value is 16. In assay [3], this molecule gave an IC50 of 3 µM.

`CCN(CC)CCNc1cc2c(nn1)-c1cc(C)c(C)cc1CCCC2.Cl.Cl` [SR 44703 A, 3-(2-Diethylaminoethylamino)-10,11-dimethyl-5,6,7,8-tetrahydrobenzocycloocta[5,6-c]pyridazine dihydrochloride]: in assay [2], the IC50 turned out to be 0.1 µM and the “r = (M2 /M1)” value came out at 40. Besides, in assay [3], the IC50 worked out at 4 µM.

On to `Cc1cc2c(cc1C)-c1nnc(NCCN3CCCC3)cc1CCC2` [SR 44650 A], for which, in assay [1] (setting [4]), the ED50 worked out at 3 mg/kg.

For `CC(C)N(CCNc1cc2c(nn1)-c1cc([N+](=O)[O-])ccc1CCC2)C(C)C` [SR 44697 A], in assay [2], the IC50 was 0.3 µM and the “r = (M2 /M1)” value worked out at 10. In assay [3], this molecule yielded an IC50 of 3 µM.
